Data from patent US20100021471A1, “CARBON NANOTUBE-BASED DRUG DELIVERY SYSTEMS AND METHODS OF MAKING SAME” (Brookhaven Science Associates, LLC, priority 2008, published 2010).

System: L1210FR cells
Assay: MTT cytotoxicity assay, L1210FR cells
Format: cell-based
Details: read-out: IC50 of drug itself
Experimental: Cell culture. L1210 (ATCC) and L1210FR (a gift from Dr. Gregory Russell-Jones, Access Pharmaceuticals Australia Pty Ltd., Targeted Delivery, Unit 5, 15-17 Gibbes St, Chatswood, NSW, Sydney 2067. Australia) were grown as suspension in a RPMI-1640 cell culture medium (Gibco) in the absence of folic acid (FA) supplemented with 10% (v/v) heat-inactivated fetal bovine serum (FBS) and 1% (v/v) Penicillin and Streptomycin (P/S) at 37° C. in humidified atmosphere with 5% CO2. W1-38 embryonic fibroblast cells (ATCC) were cultured as monolayers on a 100 mm tissue culture dishes in a DMEM cell culture medium (Gibco) supplemented with 10% (v/v) heat-inactivated FBS and 1% (v/v) P/S at 37° C. in humidified atmosphere with 5% CO2. The cells were harvested, collected by centrifugation at 1000 rpm for 6 min, and resuspended in fresh medium at different cell density for biological experiments.
Cytotoxicity assay of conjugate 3. The cells were harvested, collected, and resuspended in 100 μL at a concentration of 2×10^4 cells per well in 96-well plates. For the adhesive cell type, the cells were allowed to reseed to the bottom of the plates overnight and the fresh medium were added to each well upon removal of the old medium. […] At the end of this time, the number of viable cells each wells was determined by a quantitative colorimetric staining assay using a tetrazolium salt (MTT, Sigma Chemical Co.). […]

Substance: SB-T-1214-fluorescein
- IC50: 87.6 nM
